In patent publication US5739338A, “N-aryl substituted tetrahydroquinolines having retinoid agonist, retinoid antagonist or retinoid inverse agonist type biological activity” (Allergan, priority 1996, dated 1998):

How the values were obtained:
RARα = biological target: T1, RARα (Homo sapiens, UniProt P10276); test: Ligand Binding Assay, RARα
T1 sequence (P10276 1-462): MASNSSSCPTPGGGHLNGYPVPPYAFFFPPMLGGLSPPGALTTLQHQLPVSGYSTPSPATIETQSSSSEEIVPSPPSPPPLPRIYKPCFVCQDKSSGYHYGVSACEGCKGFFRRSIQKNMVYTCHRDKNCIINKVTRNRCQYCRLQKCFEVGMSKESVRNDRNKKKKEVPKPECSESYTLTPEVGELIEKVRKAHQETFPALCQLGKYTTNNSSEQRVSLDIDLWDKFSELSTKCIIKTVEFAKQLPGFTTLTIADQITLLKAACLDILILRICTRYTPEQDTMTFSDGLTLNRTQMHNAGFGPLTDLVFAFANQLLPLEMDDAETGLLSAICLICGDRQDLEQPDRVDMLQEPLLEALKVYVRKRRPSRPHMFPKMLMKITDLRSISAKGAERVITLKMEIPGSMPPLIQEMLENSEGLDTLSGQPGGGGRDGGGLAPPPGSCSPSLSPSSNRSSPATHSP
Excerpt: (§1) Other assays described below, measure the ability of the compounds of the present invention to bind to, and/or activate various retinoid receptor subtypes. When in these assays a compound binds to a given receptor subtype and activates the transcription of a reporter gene through that subtype, then the compound is considered an agonist of that receptor subtype. […] In the below descried assays the ability of the compounds to bind to RARα, RARβ, RARγ, RXRα, RXRβ and RXRγ receptors, and the ability or inability of the compounds to activate transcription of a reporter gene through these receptor subtypes can be tested.
(§2) A holoreceptor transactivation assay and a ligand binding assay which measure the antagonist/agonist like activity of the compounds of the invention, or their ability to bind to the several retinoid receptor subtypes, respectively, are described in published PCT Application No. WO WO93/11755 (particularly on pages 30-33 and 37-41) published on Jun. 24, 1993, the specification of which is also incorporated herein by reference. A description of the holoreceptor transactivation assay is also provided below.
(§3) CV1 cells (5,000 cells/well) were transfected with an RAR reporter plasmid MTV-TREp-LUC (50 ng) along with one of the RAR expression vectors (10 ng) in an automated 96-well format by the calcium phosphate procedure of Heyman et al. Cell 68, 397-406, (1992). For RXRα and RXRγ transactivation assays, an RXR-responsive reporter plasmid CRBPII-tk-LUC (50 ng) along with the appropriate RXR expression vectors (10 ng) was used substantially as described by Heyman et al. above, and Allegretto et al. J. Biol. Chem. 268, 26625-26633. For RXRβ transactivation assays, an RXR-responsive reporter plasmid CPRE-tk-LUC ([…]) along with RXRβ expression vector ([…]) was used as described in above. These reporters contain DRI elements from human CRBPII and certain DRI elements from promoter, respectively. (see Mangelsdorf et al. The Retinoids: Biology, Chemistry and Medicine, pp 319-349, Raven Press Ltd., New York and Heyman et al., cited above) (1, 8). A β-galactosidase (50 ng) expression vector was used as an internal control in the transfections to normalize for variations in transfection efficiency. The cells were transfected in triplicate for 6 hours, followed by incubation with retinoids for 36 hours, and the extracts were assayed for luciferase and β-galactosidase activities. The detailed experimental procedure for holoreceptor transactivations has been described in Heyman et al. above, and Allegretto et al. cited above. The results obtained in this assay are expressed in EC50 numbers, as they are also in the chimeric receptor transactivation assay. The Heyman et al. Cell 68, 397-406, Allegretto et al. J. Biol. Chem. 268, 26625-26633, and Mangelsdorf et al. The Retinoids: Biology, Chemistry and Medicine, pp 319-349, Raven Press Ltd., New York, are expressly incorporated herein by reference. The results of ligand binding assay are expressed in Kd numbers. (See Cheng et al. Biochemical Pharmacology Vol. 22 pp 3099-3108, expressly incorporated herein by reference.)

RARγ = biological target: T2, RARγ (Homo sapiens, UniProt P13631); test: Ligand Binding Assay, RARγ
T2 sequence (P13631 1-454): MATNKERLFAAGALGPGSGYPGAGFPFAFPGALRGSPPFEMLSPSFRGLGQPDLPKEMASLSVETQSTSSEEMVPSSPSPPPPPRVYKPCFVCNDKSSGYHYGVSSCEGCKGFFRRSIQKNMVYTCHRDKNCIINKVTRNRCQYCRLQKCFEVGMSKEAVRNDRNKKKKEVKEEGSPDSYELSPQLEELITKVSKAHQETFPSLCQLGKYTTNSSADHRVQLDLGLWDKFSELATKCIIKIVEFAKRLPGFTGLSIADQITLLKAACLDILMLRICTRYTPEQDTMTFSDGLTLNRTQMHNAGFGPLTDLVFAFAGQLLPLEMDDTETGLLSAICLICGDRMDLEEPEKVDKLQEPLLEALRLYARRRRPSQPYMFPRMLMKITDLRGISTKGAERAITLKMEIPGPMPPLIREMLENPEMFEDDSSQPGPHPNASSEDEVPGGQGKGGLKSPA
Excerpt: as §1, §2, §3

RARβ = biological target: T3, RARβ (Homo sapiens, UniProt P10826); test: Ligand Binding Assay, RARβ
T3 sequence (P10826 1-448 isoform P10826-2): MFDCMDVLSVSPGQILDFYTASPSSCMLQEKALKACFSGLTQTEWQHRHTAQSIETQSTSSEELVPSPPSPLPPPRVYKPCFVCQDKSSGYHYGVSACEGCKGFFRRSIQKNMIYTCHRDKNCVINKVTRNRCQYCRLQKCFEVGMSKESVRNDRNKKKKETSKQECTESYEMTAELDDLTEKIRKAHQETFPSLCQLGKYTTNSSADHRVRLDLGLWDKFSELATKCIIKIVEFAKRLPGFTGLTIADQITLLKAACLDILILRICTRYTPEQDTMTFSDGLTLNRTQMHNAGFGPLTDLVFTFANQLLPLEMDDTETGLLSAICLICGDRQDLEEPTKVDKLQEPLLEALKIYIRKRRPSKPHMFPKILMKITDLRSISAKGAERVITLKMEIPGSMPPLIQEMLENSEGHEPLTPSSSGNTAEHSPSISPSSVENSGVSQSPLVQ
Excerpt: as §1, §2, §3

[1] = tested on: RARγ-VP-16 chimeric receptor; test: Retinoid inverse agonist assay: inhibition of basal luciferase activity in CV-1 cells cotransfected with RARγ-VP-16, ER-RXRα and ERE-tk-Luc; format: cell-based; conditions: RARγ-VP-16, ER-RXRα chimeric receptor, ERE-tk-Luc reporter, read-out: IC50 (inhibition of basal luciferase activity, inverse agonism)
Excerpt: The activity of retinoid inverse agonists can be tested by the procedure of Klein et al. J. Biol. Chem. 271, 22692-22696 (1996) which is expressly incorporated herein by reference.
In this assay, retinoid inverse agonists are able to repress the basal activity of a RARγ-VP-16 chimeric receptor where the constituitively active domain of the herpes simplex virus (HSV) VP-16 is fused to the N-terminus of RARγ. CV-1 cells are cotransfected with RARγ-VP-16, an ER-RXRα chimeric receptor and an ERE-tk-Luc chimeric reporter gene to produce a basal level of luciferase activity, as shown by Nagpal et al. EMBO J. 12, 2349-2360 […] expressly incorporated herein by reference. Retinoid inverse agonists are able to inhibit the basal luciferase activity in these cells in a dose dependent manner and IC50 s measured.

SMILES	Kd (RARα) [µM]	Kd (RARγ) [µM]	Kd (RARβ) [µM]	IC50 [1] [µM]
Cc1ccc(N2CCC(C)(C)c3ccc(C#Cc4ccc(C(=O)O)cc4)cc32)cc1 [Compound 5, 4-(2-(4,4-Dimethyl-1,2,3,4-tetrahydro-N-(4-methylphenyl)quinolin-7-yl)ethynyl)benzoic Acid]	0.013	0.009	0.003	0.001
CC1(C)CCN(c2ccccc2)c2cc(C#Cc3ccc(C(=O)O)cc3)ccc21 [Compound 10, 4-(2-(4,4-Dimethyl-1,2,3,4-tetrahydro-N-phenylquinolin-7-yl)ethynyl)benzoicAcid]	0.147	0.052	0.018	–
Cc1ccc(N2CCC(C)(C)c3ccc(C#Cc4ccc(C(=O)O)c(F)c4)cc32)cc1 [Compound 12, 4-(2-(4,4-Dimethyl-1,2,3,4-tetrahydro-N-(4-methylphenyl)quinolin-7-yl)ethynyl)-2-fluorobenzoic Acid]	0.101	0.53	0.084	–
Cc1ccc(N2CCC(C)(C)c3ccc(/C=C/c4ccc(C(=O)O)cc4)cc32)cc1 [Compound 14, (E)-4-(2-(4,4-dimethyl-1,2,3,4-tetrahydro-N-(4-methylphenyl)quinolin-7-yl)ethenyl)benzoic acid]	0.011	0.015	0.005	–
Cc1ccc(N2C(=O)CC(C)(C)c3ccc(C#Cc4ccc(C(=O)O)cc4)cc32)cc1 [Compound 22, 4-(2-(4,4-Dimethyl-3,4-dihydro-N-(4-methylphenyl)-2(1H)-quinolinon-7-yl)ethynyl)benzoic Acid]	0.059	0.032	0.017	–
Cc1ccc(N2CCC(C)(C)c3ccc(C(=O)Nc4ccc(C(=O)O)cc4)cc32)cc1 [Compound 25, (4,4-dimethyl-1,2,3,4-tetrahydro-N-(4-methylphenyl)quinolin-7-carboxyl)-4-carboxyanilide]	0.027	> 1	> 1	–
